Reference: paper PMC11546786, “Designing Analogs of SAAP-148 with Enhanced Antimicrobial and Anti-LPS Activities” (International Journal of Molecular Sciences, 2024)
Ends that are not written are not given here.

Tests used:
E. coli = assay: Membrane damage, PI staining and flow cytometry; type: cell-based, Escherichia coli; settings: 6.25 μM peptide, 30 min
Procedure: Propidium iodide (PI) was utilized as a marker for assessing the structural integrity of cell membranes and the occurrence of cell death. The impact of peptides on BEAS-2B cells, E. coli, and S. aureus was investigated by treating the cells with peptides followed by PI staining and flow cytometry (FACS) analysis to evaluate peptide-induced membrane damage. Table 5 presents the results of PI staining in BEAS-2B cells (1 × 10^6) following treatment with peptides at a concentration of 6.25 μM. […] FACS analysis at a peptide concentration of 6.25 μM was employed to determine the membrane damage caused by peptides in E. coli and S. aureus cells (Table 5).
Peptide-induced membrane damage was evaluated by quantifying the influx of propidium iodide (PI). BEAS-2B cells (1 × 10^6 cells in 50 μL) were exposed to a final concentration of 6.25 μM peptide and incubated at 37 °C for 30 min, followed by PBS washing and re-suspension in PI solution (dissolved in PBS) at a final concentration of 2 μg/mL. Bacteria were cultured to mid-log phase at 37 °C, then diluted to an OD600 of 0.5 in phosphate-buffered saline (PBS). […] The bacteria were harvested and re-suspended in PI solution, with fluorescence signal analysis conducted using flow cytometry (Cytomics FC 500, Beckman Coulter, Indianapolis, IN, USA).

[1] = CD spectra, secondary structure by BeStSel; type: physicochemical; settings: 30 μM SDS as printed, 100 μM peptide, 25 °C
Procedure, shortened: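 Far-UV CD spectra (190–250 nm) of peptides at 100 μM in SDS, 0.1 cm cells, 25 °C under nitrogen. Secondary-structure content derived from spectra by BeStSel deconvolution.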

[2] = test system: Gram-positive bacteria (S. aureus, S. epidermidis); assay: Geometric mean of MICs against Gram-positive bacteria; type: cell-based; parameters: unit not given here
Procedure, shortened: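 Modified CLSI broth microdilution: mid-log bacteria from LB culture were adjusted to 1 × 10^6 CFU/mL and mixed 1:1 with peptide serially diluted in PBS. After 18 to 20 h at 37 °C, growth was read as absorbance at 600 nm.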

human erythrocytes = assay: Haemolytic activity; type: cell-based
Procedure: The haemolytic activity of the peptides was evaluated using a standard procedure with minor adjustments. Fresh human erythrocytes were washed thrice and subsequently resuspended at 1.25% haematocrit in PBS. Forty microlitres PBS-diluted peptide solution was added to a 96-well plate (Corning Inc., Lowell, MA, USA), and 160 μL of erythrocytes was added. After incubation at 37 °C for 30 min, the samples were centrifuged, and the absorbance of the supernatant was measured at 450 nm using a multi-well microplate reader (SpectraMax M5; Molecular Devices, Sunnyvale, CA, USA) and compared with the 100% haemolysis caused by 0.1% Triton X-100. The percentage of haemolysis was calculated according to the equation: Haemolysis%=Asample−Ablank/Atriton−Ablank×100

[3] = test system: Staphylococcus epidermidis (1.4260); type: cell-based
Text: (§1) The LL-37, SAAP-148 and its analogues peptides were synthesized according to the standard Fmoc procedure. The Fmoc-protected resin and monomers are first treated with a basic solvent (piperidine) to remove the amino protecting groups. The carboxyl group of the next amino acid is activated by an activator. The activated monomer reacts with the free amino group to form a peptide bond. These two steps are repeated in a cycle until the synthesis is complete. After synthesis, the peptide is eluted from the column and purified by reverse-phase semipreparative high-performance liquid chromatography as detailed in Table 1. The peptides were dissolved in PBS to create a 1000 μmol/L stock solution for subsequent use. The purity of the synthetic peptide exceeded 95%. Blood samples from healthy donors were obtained from the Fifth Medical Center of Chinese PLA General Hospital (Beijing, China). Human normal lung epithelial cells (BEAS-2B) and mouse mononuclear macrophages cells (RAW 264.7) were sourced from Beyotime Biotechnology (Beijing, China), along with the Enhanced Cell Counting Kit-8 (CCK-8) and nitric oxide detection kit. RPMI-1640 and DMEM were procured from Merck (Darmstadt, Germany), while FBS was obtained from ExCell Bio (Shanghai, China). LPS-B5 (from E. coli 055:B5) was procured from Invivogen (Toulouse, France). Five bacterial strains, including Escherichia coli (1.8732), Pseudomonas aeruginosa (1.2421), Klebsiella pneumonia (1.1736) as Gram-negative bacteria, and Staphylococcus aureus (1.8721) and Staphylococcus epidermidis (1.4260) as Gram-positive bacteria, were procured from the China General Microbiological Culture Collection Centre (CGMCC) (Beijing, China).
(§2) The antibacterial activities of the peptides against […] were evaluated using a modified version of the Clinical Laboratory and Standards Institute (CLSI) broth microdilution method, as previously described. Briefly, the bacteria were cultured in liquid LB medium (comprising 10 g/L tryptone, 5 g/L yeast extract, and 10 g/L NaCl) at 37 °C until reaching mid-log phase. Subsequently, the bacterial concentration was adjusted to 1 × 10^6 colony-forming units (CFU)/mL. The peptides were then diluted serially with phosphate-buffered saline (PBS), followed by the addition of 50 μL of the diluted peptides to 50 μL of the bacterial suspension in a 96-well plate (Corning Inc., Lowell, MA, USA). After incubating at 37 °C for 18 to 20 h, the absorbance of each well was measured using a multi-well microplate reader (SpectraMax M5; Molecular Devices, Sunnyvale, CA, USA) at 600 nm.

[4] = test system: Pseudomonas aeruginosa (1.2421); type: cell-based
Text: as §1, §2

[5] = test system: Staphylococcus aureus (1.8721); type: cell-based
Text: as §1, §2

[6] = test system: human erythrocytes versus five bacterial strains; assay: Therapeutic index (MHC/GM of MIC)
Procedure: The geometric mean of minimum inhibitory concentration (MIC) values (GM) from the five strains was calculated to provide a comprehensive assessment of antimicrobial activity, as presented in Table 4.
The therapeutic index (TI) is a widely utilized parameter for indicating the specificity of antimicrobial agents, which is determined by the ratio of MHC (hemolytic activity) and MIC (antimicrobial activity). Consequently, larger TI values signify greater antimicrobial specificity. The TI can be enhanced through one of three mechanisms: increasing antimicrobial activity, reducing hemolytic activity while maintaining antimicrobial activity, or a combination of both augmenting antimicrobial activity and diminishing hemolytic activity.

Substance: LKRVWKRVFKLKKRYWRQLKKPVR-NH2 [SAAP-7]
- percentage of PI-positive cells, E. coli (E. coli): 34.9%
- Others [1]: 3.4%
- Turn [1]: 0%
- α-Helix [1]: 48.3%
- β-Antiparallel [1]: 48.3%
- β-Parallel [1]: 0%
- GM to G+ [2]: 35.36
- fold increase of MHC over that of SAAP-148 (human erythrocytes): 133.33 fold
- MIC S. epidermidis [3]: 12.50 µM
- MIC P. aeruginosa [4]: 3.13 µM
- MIC S. aureus [5]: 100.00 µM
- Fold (TI of analogue compared with SAAP-148) ([6]; TI change relative to SAAP-148): 55.09
- TI (MHC/MIC) ([6]; ratio of MHC to geometric mean of MIC (five strains)): 6.06
